Paper PMC11571109, “Covalent Inhibitors of S100A4 Block the Formation of a Pro-Metastasis Non-Muscle Myosin 2A Complex” (Journal of Medicinal Chemistry, 2024)
Several values for one entry are separate records, joined by “and”; a condition that tells them apart may be missing. Identical values can stand only once. Like-named read-outs stand apart in the source and are kept apart here.

What was measured:
[1] = target: T1, S100A11-AnII (Homo sapiens, UniProt P31949); assay: HTRF (TR-FRET) peptide displacement S100A11-AnII; assay type: binding; details: supplementary CSV
T1 construct: made in house; host or cells: E. coli Rosetta (DE3); peptide from LifeTein
T1 sequence (P31949 1-105): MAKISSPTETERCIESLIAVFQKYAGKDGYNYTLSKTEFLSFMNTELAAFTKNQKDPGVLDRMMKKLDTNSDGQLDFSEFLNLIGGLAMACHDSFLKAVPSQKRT
Procedure: Table S4: Compound IDs and SMILES … S30 […]
(§1) Peptide displacement assay development
(§2) addition of an inhibitor.
(§3) Assay was done in 384-well
(§4) After 2 hours of incubation at
(§5) concentration range to avoid the saturation of the signal.

[2] = target: S100A4-NMII (Homo sapiens, UniProt P26447); assay: HTRF (TR-FRET) peptide displacement S100A4-NMII (MPN peptide); assay type: binding; design: made in house; host or cells: E. coli Rosetta (DE3); peptide from LifeTein; details: supplementary CSV; read-out: S100A4 IC50 HTRF assay
Procedure: as §1, §2, §3, §4, §5

[3] = target: S100A4 (Homo sapiens, UniProt P26447); assay: Protein labeling detection by mass spectrometry, S100A4; details: 10 μM S100A4, 100 μM inhibitor, 1 h
[4] = Log D; assay type: physicochemical
From the text: (§6) Selected compounds were screened for aqueous solubility in PBS (pH 7.4), metabolic stability in mouse liver microsomes (MLM) as a measure of clearance, Log D, and permeability. ADME studies reported in this work were independently performed by WuXi AppTec (Shanghai, China). Raw data are provided upon request.

[5] = tested on: A549; assay: Cell proliferation assay (CellTiter-Glo), A549; assay type: cell-based; details: Homo sapiens, 48 h, supplementary CSV
Procedure: (§7) To further characterize the potency of the phenylproline derivatives on cancer cells, their effect on proliferation has been measured on HeLa and A549 cell lines, which are known to express S100A4.[44],[45] A cell proliferation assay was performed by cultivating cells for 48 h in complete media with various concentrations of inhibitors, up to 30 μM. At the end of the treatment, luminescence was measured after the addition of the CellTiter-Glo reagent (Figure 7A).
(§8) The day before, cells were seeded in a white, cell-culture treated 384-well plates in complete high-glucose DMEM to reach a confluency of 25% on the day of the experiment. The next day, the medium was replaced by complete, high-glucose, phenol-red-free medium, and cells were incubated for 48 h in the presence of an inhibitor or DMSO as a control. Aliquots of the supernatant were harvested, diluted 100 times in 200 mM Tris-HCl, pH 7.3, 10% glycerol, and 1% BSA buffer, and used for cyctotoxicity measurement by using the LDH-Glo cytotoxicity assay kit (Promega). In parallel, the CellTiter-Glo (Promega) reagent was added to the cells to measure cell proliferation. Both experiments were done according to the manufacturer’s recommendations, and the luminescence was quantified using the FSX plate reader (Pherastar).

[6] = Cytotoxicity assay (LDH-Glo), A549; assay type: cell-based; details: human, A549 cells, supplementary CSV, read-out: A549 Cell toxicity IC50
Procedure: as §7, §8

[7] = Aqueous solubility in PBS (pH 7.4); assay type: physicochemical
From the text: as §6

[8] = tested on: MDCK-MDR1 cell line; assay: Cell permeability MDR1-MDCK II; assay type: in vitro ADME
From the text: as §6

[9] = tested on: P-glycoprotein (P-gp, MDR1); assay: Cell permeability MDR1-MDCK II; assay type: in vitro ADME; details: dog
From the text: as §6

[10] = Cytotoxicity assay (LDH-Glo), HeLa; assay type: cell-based; details: human, HeLa cells, supplementary CSV, read-out: HeLa Cell toxicity IC50
Procedure: as §7, §8

[11] = tested on: HeLa; assay: Cell proliferation assay (CellTiter-Glo), HeLa; assay type: cell-based; details: Homo sapiens, 48 h, supplementary CSV
Procedure: as §7, §8

[12] = Metabolic stability in mouse liver microsomes (MLM); assay type: in vitro ADME; details: mouse liver microsomes
From the text: as §6

[13] = GSH reactivity assay (LCMS); assay type: physicochemical; details: 1 mM glutathione (GSH) in HEPES buffer, pH 7.5; read-out: GSH t1/2 (converted)
Procedure: GSH is the most abundant low molecular weight thiol compound in the cell. It protects cells from oxidative damage and the toxicity of xenobiotic electrophiles and maintains redox homeostasis.[43] We speculated that a robust and specific reaction of inhibitors would not be drastically affected by competitive cysteines in the reaction.
50 μM of each compound was incubated at room temperature with 1 mM GSH in 50 mM HEPES, 20 mM NaCl, pH 7.5, and 1.3% DMSO. At each time point, an aliquot was taken and analyzed by LCMS. The percentage of the compound remaining was determined by comparing the area of the peaks of the compound and the GSH adduct. The natural logarithm of the results was fitted to a linear regression, and t1/2 was calculated as t1/2 = ln(2)/–slope.

Chain of S100A4-NMII (P26447 whole entry): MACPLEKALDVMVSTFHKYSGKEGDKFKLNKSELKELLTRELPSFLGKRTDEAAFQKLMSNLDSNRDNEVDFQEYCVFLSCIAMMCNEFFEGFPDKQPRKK
Chain of S100A4 (P26447 whole entry): as above

SMILES	IC50 [1]	IC50 [2]	other results
CN1CCCC(NC(=O)[C@H]2C[C@H](c3ccccc3)CN2C(=O)CCl)C1=O (some centres unmarked) [5d]	> 30 µM	1.05 µM	–
O=C(CCl)Nc1cccc(CN(CCc2cnn(-c3nccc4c(=O)[nH]cnc34)c2)C2CCCC2)c1 [3a]	> 30 µM	2.4 µM	–
C#CC(=O)N1CCN(CCc2cnn(-c3nccc4c(=O)[nH]cnc34)c2)CC1 [4a]	8.15 µM	1.73 µM	–
C=CC(=O)Nc1cccc(CN(CCc2cnn(-c3nccc4c(=O)[nH]cnc34)c2)C2CCCC2)c1 [3b]	> 30 µM	9.32 µM	–

The next lines start with results.

IC50 [1]	IC50 [2]	SMILES	other results
> 30 µM	1.24 µM	N#CCc1ccc(NC(=O)[C@H]2C[C@H](c3ccccc3)CN2C(=O)CCl)cc1 [5g]	–
> 30 µM	3.25 µM	O=C1Nc2ccccc2C1NC(=O)[C@H]1C[C@H](c2ccccc2)CN1C(=O)CCl (some centres unmarked) [5e]	–
3.67 µM	0.43 µM	CC(C)c1c(-c2ccc(OCCNC(=O)/C=C/C(=O)c3ccccc3)cc2)[nH]c2c(C#N)cnn2c1=O [2a]	S100A4 covalent modification pattern (in words) [3]: multiple adduct additions
> 30 µM	–	O=C(NC1CCCc2ccccc21)[C@H]1C[C@H](c2ccccc2)CN1C(=O)CCl (some centres unmarked) [5b]	logD [4]: 3.74; IC50 [5]: 22.1 µM; IC50 at 48 h [6]: 29.7 µM; aqueous solubility (in words) [7]: good solubility; solubility ([7]; aqueous buffer, PBS pH 7.4, read-out: aq. solubility): 45.7 µg/mL and 115 µM; cell permeability MDCK-MDR1 (in words) [8]: good permeability without efflux; Papp ([9]; MDCK-MDR1, A to B, read-out: MDR1-MDCK II, AB Papp): 3.8 ×10⁻⁶ cm/s; Papp ([9]; MDCK-MDR1, B to A, read-out: MDR1-MDCK II, BA Papp): 34.5 ×10⁻⁶ cm/s; IC50 at 48 h [10]: 29.9 µM; IC50 [11]: 2.6 µM; MLM, Cli [12]: 778 μL/min/mg protein; half-life ([12]; read-out: MLM, T1/2): 2 min; half-life at 50 μM [13]: 5.7 h
